Measured values: US12134788B2, “Engineered prephenate dehydrogenases and arogenate dehydrogenases and methods of using the same” (Wisconsin Alumni Research Foundation, priority 2017, dated 2024)
“And” between values parts separate entries of the source, which are not always exact repeats. Identical values can stand only once. “Also recorded” adds a separate entry of the source. Like-named read-outs stand apart in the source and are kept apart here.

Legend:
[1] = tested on: Methanosaeta harundinacea MhTyrAp variant Q227E; assay: Kinetic analysis of MhTyrAp Q227E mutant; type: biochemical
Experimental: (§1) FIGS. 14A-14B show a kinetic analysis of MhTyrAp wild-type and Q227E mutant enzymes. Kinetic analysis was performed with MhTyrAp wild-type (filled circle) and Q227E mutant (open square) enzymes using various concentrations of prephenate (FIG. 14A) and arogenate (FIG. 14B). Initial velocity values at each substrate concentration were fit to the Michaelis-Menten equation using Origin software. Kinetic analyses were conducted for MhTyrA wild-type using 3.41 μg of purified recombinant enzyme, and 4.56 μg and 2.28 μg of purified recombinant Q227E using prephenate and arogenate, respectively.
(§2) ADH and PDH assays were performed using purified recombinant enzymes for SsTyrA and MhTyrA Wt and Q227E mutant, while the E. coli cell lysate was used for OiTyrA as expression and purification of this enzyme was unsuccessful. Reactions contained 0.8 mM substrate (arogenate or prephenate) and 0.8 mM cofactor (NADP+ or NAD+) together with reaction buffer (25 mM HEPES pH 7.6, 50 mM KCl, 10% (v/v) ethylene glycol). For OiTyrA assays containing cell lysates, reactions were incubated for 45 minutes and analyzed using HPLC as previously reported (Schenck et al., 2015). For pure enzymes, reactions were monitored every 10-15 seconds for reduced cofactor at A340 nm using a microplate reader (Tecan Genios). Kinetic parameters of purified recombinant enzymes were determined from assays containing varying concentrations of arogenate (39.1 μM-5 mM) or prephenate (39.1 μM-5 mM) substrate and monitored 10-15 seconds for reduced cofactor at A340 nm using a microplate reader (Tecan Genios). Kinetic parameters were determined by fitting initial velocity data to the Michaelis-Menten equation using Origin software (OriginLab) from technical replicate assays (n=3). Arogenate substrate was prepared by enzymatic conversion of prephenate (Sigma-Aldrich). All enzyme assays were conducted at a reaction time and protein concentration that were in the linear range and proportional to reaction velocity.

[2] = target: T1, Glycine max GmPDH1 variant N222D, SEQ ID NO: 2 (Glycine max, UniProt I1MYY4, N222D); assay: ADH and PDH assay: steady-state kinetics and Tyr inhibition, GmPDH1 N222D; type: biochemical, Glycine max (soybean); conditions: versus wild-type GmPDH1
T1 sequence (I1MYY4 1-271 N222D): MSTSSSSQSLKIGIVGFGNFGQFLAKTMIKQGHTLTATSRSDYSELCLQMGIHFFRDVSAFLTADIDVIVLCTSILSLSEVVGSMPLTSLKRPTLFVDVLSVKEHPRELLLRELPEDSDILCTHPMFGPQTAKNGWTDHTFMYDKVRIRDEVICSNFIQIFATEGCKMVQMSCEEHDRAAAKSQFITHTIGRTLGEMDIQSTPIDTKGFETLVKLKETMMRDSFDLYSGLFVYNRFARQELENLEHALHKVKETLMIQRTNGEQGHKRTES
Experimental: (§3) Kinetic parameters of purified recombinant proteins were determined from assays conducted at varying arogenate (19.5 μM-5 mM) and prephenate concentration (23.4 μM-6 mM). Standard assay conditions were 25 mM HEPES pH 7.6, 50 mM KCl and 10% (v/v) ethylene glycol, and 0.5 mM NADP^+ with varied substrate, concentrations. Reactions were initiated by addition of enzyme and incubated at 37° C. monitored every 10-15 seconds at […] using a microplate reader (Tecan Genios). Kinetic parameters were determined by fitting initial velocity data to the Michaelis-Menten equation using the Origin software (OriginLab).
(§4) Arogenate was prepared by enzymatic conversion of prephenate (Sigma-Aldrich) as previously reported^56. For Tyr inhibition assays, Tyr was dissolved in a slightly basic solution (0.025 N NaOH) due to solubility issues, thus the concentration of lysis buffer was increased to 500 mM HEPES final concentration to buffer against the changes by addition of Tyr in the reaction. Reactions containing varying amounts of Tyr (10 μM-8 mM) with 0.5 mM NADP^+ and either 1 mM arogenate or 0.8 mM prephenate were monitored as above.

[3] = target: T2, Medicago truncatula MtPDH variant C220D, SEQ ID NO: 1 (Medicago truncatula, UniProt A0A0A0R205, C220D); assay: ADH and PDH assay: steady-state kinetics and Tyr inhibition, MtPDH C220D; type: biochemical; conditions: compared to wild-type MtPDH
T2 sequence (A0A0A0R205 1-268 C220D): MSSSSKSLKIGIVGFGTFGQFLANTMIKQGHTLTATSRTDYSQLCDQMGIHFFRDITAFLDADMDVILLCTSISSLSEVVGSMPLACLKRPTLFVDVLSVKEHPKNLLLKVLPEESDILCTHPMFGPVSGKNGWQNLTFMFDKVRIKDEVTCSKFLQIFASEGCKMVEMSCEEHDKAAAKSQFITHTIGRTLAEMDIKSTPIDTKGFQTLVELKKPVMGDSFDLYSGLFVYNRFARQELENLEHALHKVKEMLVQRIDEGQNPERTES
Experimental: as §3, §4

[4] = tested on: MhTyrA (MhTyrAp; KUK94425.1), Methanosaeta harundinacea TyrA, wild-type; assay: Kinetic analysis of MhTyrAp wild-type; type: biochemical; conditions: NADP+ cofactor
Experimental: as §1, §2

[5] = target: T3, MtPDH (MtPDH1; Mt3g071980), Medicago truncatula prephenate dehydrogenase, wild type (Medicago truncatula, UniProt A0A0A0R205); assay: ADH and PDH assay: steady-state kinetics and Tyr inhibition, MtPDH wild type; type: biochemical; conditions: preference for prephenate
T3 sequence (A0A0A0R205 1-268): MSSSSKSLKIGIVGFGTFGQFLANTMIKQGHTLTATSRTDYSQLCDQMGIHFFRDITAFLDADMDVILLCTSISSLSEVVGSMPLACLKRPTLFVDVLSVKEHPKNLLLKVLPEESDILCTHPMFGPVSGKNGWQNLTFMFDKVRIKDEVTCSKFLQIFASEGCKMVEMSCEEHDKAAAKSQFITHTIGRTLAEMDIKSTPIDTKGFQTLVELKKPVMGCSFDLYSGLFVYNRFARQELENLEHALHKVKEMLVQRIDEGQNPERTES
Experimental: as §3
as §4, with “Reactions containing varying amounts of Tyr (10 μM-8 mM) with 0.5 mM NADP^+ and either 1 mM arogenate or 0.8 mM prephenate were monitored as above.” left out

[6] = target: T4, Medicago truncatula MtncADH variant D220C, SEQ ID NO: 10 (Medicago truncatula, UniProt A0A217FAR3, D220C); assay: ADH and PDH assay: steady-state kinetics and Tyr inhibition, MtncADH D220C; type: biochemical; conditions: kcat/Km
T4 construct: D220C by site-directed mutagenesis
T4 sequence (A0A217FAR3 1-266 D220C): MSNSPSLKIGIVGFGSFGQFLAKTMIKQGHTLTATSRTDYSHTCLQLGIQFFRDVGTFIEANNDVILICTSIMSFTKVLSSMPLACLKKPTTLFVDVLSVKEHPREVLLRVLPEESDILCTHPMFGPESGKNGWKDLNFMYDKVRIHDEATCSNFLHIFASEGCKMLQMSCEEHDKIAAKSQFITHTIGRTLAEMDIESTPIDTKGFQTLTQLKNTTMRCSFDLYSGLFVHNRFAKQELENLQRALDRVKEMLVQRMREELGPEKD
Experimental: as §3, §4

[7] = tested on: Peanut PDH/ADH (AipaensisVYE8T), Arachis ipaensis, wild type; assay: ADH and PDH assay: steady-state kinetics and Tyr inhibition, peanut PDH/ADH; type: biochemical
Experimental: as §3, §4

[8] = target: T5, GmPDH1 (Gm18g02650), soybean (Glycine max) prephenate dehydrogenase, wild type (Glycine max, UniProt I1MYY4); assay: ADH and PDH assay: steady-state kinetics and Tyr inhibition, GmPDH1 wild type; type: biochemical
T5 construct: homodimer
T5 sequence (I1MYY4 1-271): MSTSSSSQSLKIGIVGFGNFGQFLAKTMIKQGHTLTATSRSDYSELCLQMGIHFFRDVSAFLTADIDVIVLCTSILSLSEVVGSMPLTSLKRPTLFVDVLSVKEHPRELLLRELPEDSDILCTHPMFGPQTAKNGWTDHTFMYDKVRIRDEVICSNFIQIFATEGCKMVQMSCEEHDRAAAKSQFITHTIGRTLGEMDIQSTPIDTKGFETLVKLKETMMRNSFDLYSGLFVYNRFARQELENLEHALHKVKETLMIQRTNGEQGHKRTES
Experimental: as §3
as §4, with “Reactions containing varying amounts of Tyr (10 μM-8 mM) with 0.5 mM NADP^+ and either 1 mM arogenate or 0.8 mM prephenate were monitored as above.” left out

[9] = PDH assay: steady-state kinetics of purified recombinant plant enzymes with prephenate; type: biochemical; conditions: prephenate versus arogenate, NADP+ cofactor
Description: As used herein, a polypeptide may “have greater arogenate dehydrogenase activity than prephenate dehydrogenase activity” or “have greater prephenate dehydrogenase activity than arogenate dehydrogenase activity” when the steady-state kinetic parameters (kcat/Km (mM^−1s^−1)) for arogenate dehydrogenase activity are greater than the steady-state parameters (kcat/Km (mM^−1s^−1)) for prephenate dehydrogenase activity or when the steady-state kinetic parameters (kcat/Km (mM^−1s^−1)) for prephenate dehydrogenase activity are greater than the steady-state parameters (kcat/Km (mM^−1s^−1)) for arogenate dehydrogenase activity. Steady-state kinetic parameters may be measured using techniques similar to those described by the inventors in the Examples. Briefly, kinetic parameters of purified polypeptides can be determined from assays conducted at varying arogenate and prephenate concentrations. Standard assay conditions include 25 mM HEPES pH 7.6, 50 mM KCl and 10% (v/v) ethylene glycol, and 0.5 mM NADP^+ with varied substrate, concentrations. Reactions can be initiated by the addition of the polypeptide and incubated at 37° C. monitored every 10-15 seconds at A340nm using a microplate reader. Kinetic parameters may be determined by fitting initial velocity data to the Michaelis-Menten equation using the Origin software.
as §3

[10] = Tyr inhibition assay of ADH activity (arogenate substrate); type: biochemical; conditions: Tyr up to 8 mM
Experimental: as §4

[11] = ADH assay of microbial TyrA enzymes (Example 2); type: biochemical; conditions: ADH activity, NADP+ versus NAD+, 0.8 mM
Experimental: as §2

[12] = PDH assay of microbial TyrA enzymes (Example 2); type: biochemical; conditions: 0.8 mM arogenate or prephenate, 0.8 mM cofactor
Experimental: as §2

Molecule: O=C(O)C(=O)CC1(C(=O)O)C=CC(O)C=C1 (centres unmarked) [prephenate]
- kcat ([1]; NADP+ cofactor, pH 7.6): 0.285 ± 0.17 s⁻¹
- kcat/Km ([1]; NADP+ cofactor, pH 7.6): 100 M⁻¹ s⁻¹ and 107 ± 10 M⁻¹ s⁻¹
- Km ([1]; NADP+ cofactor, pH 7.6, read-out: Km): 2700 µM and 2670 µM
- Km ([1]; read-out: Km for prephenate): 2400 µM
- fold increase in Km for prephenate ([1]; versus wild-type): ~10 fold
- fold reduction of catalytic efficiency (kcat/Km) ([1]; versus wild-type): 60 fold
- fold reduction in kcat/Km with prephenate [2]: 115 fold
- fold higher Km [3]: 31 fold
- Km [4]: 378 µM
- Km ([4]; pH 7.6): 378 ± 20 µM
- kcat ([4]; pH 7.6): 2.4 s⁻¹ and 2.44 ± 0.38 s⁻¹
- kcat/Km ([4]; pH 7.6): 6400 M⁻¹ s⁻¹ and 6440 ± 20 M⁻¹ s⁻¹
- fold higher kcat/Km, prephenate versus arogenate [5]: 21 fold
- fold preference for prephenate over arogenate [6]: 1.7 fold
- Km ([7]; 0.5 mM NADP^+, pH 7.6, 37° C.): 190 ± 10 µM
- kcat ([7]; 0.5 mM NADP^+, pH 7.6, 37° C.): 2.8 ± 0.2 s⁻¹
- kcat/Km ([7]; 0.5 mM NADP^+, pH 7.6, 37° C.): 14,740 M^−1 s^−1
- kcat/Km ([7]; FIG. 7A, with NADP^+): 14.9 mM⁻¹ s⁻¹
- kcat ([8]; 0.5 mM NADP^+, pH 7.6, 37° C.): 30.4 s⁻¹
- fold higher kcat/Km, prephenate versus arogenate ([8]; preference for prephenate): 139 fold

B1: AtADH2 D241N: site-directed mutant of Arabidopsis canonical ADH, Asp241 to Asn (protein)
chain: MLLHFSPAKPLISPPNLRRNSPTFLISPPRSLRIRAIDAAQIFDYETQLKSEYRKSSALKIAVLGFGNFGQFLSKTLIRHGHDLITHSRSDYSDAANSIGARFFDNPHDLCEQHPDVVLLCTSILSTESVLRSFPFQRLRRSTLFVDVLSVKEFPKALFIKYLPKEFDILCTHPMFGPESGKHSWSGLPFVYDKVRIGDAASRQERCEKFLRIFENEGCKMVEMSCEKHDYYAAGSQFVTHTMGRVLEKYGVESSPINTKGYETLLDLVENTSSNSFELFYGLFMYNPNALEQLERLDMAFESVKKELFGRLHQQYRKQMFGGEVQSPKKTEQKLLNDGGVVPMNDISSSSSSSSSSS
modifications: Synthetic: AtADH2 D241N
notes: site-directed mutant of Arabidopsis canonical ADH, Asp241 to Asn
- substrate specificity: PDH versus ADH activity (in words) [9]: gained PDH activity at the expense of ADH activity
- feedback inhibition by Tyr (in words) [10]: significantly less sensitive to Tyr inhibition than the respective wild-type enzymes

B2: SsTyrA: TyrA from Sediminispirochaeta smaragdinae DSM 11293 (spirochaetes), recombinant (protein)
chain: MVEHTVGIYGLGRFGSFWAKSLAASGLKVIGYNRSKRALPEGVVSGSETEVLSCNTLFYCVAISSFEEVLSRTAAKIGKHTLVFDTCSVKVEPVRTMERLLPQGCTFAGSHPMFGPDSASEGMDGLPMVLCPGRDDEGKVDFWRHHFSKMGLRVIEITADRHDKEAAYTQGITHVVGRILGELDLHESEIATSGYKRLLQVREQTCNDPLQLFIDLQRYNPYTHGMRMELTSALEQIMTLFAQADLPPDRP
modifications: S. smaragdinae; misc_feature (1)..(251): S. smaragdinae TyrA SsTyrA
notes: TyrA from Sediminispirochaeta smaragdinae DSM 11293 (spirochaetes), recombinant
- cofactor preference (in words) [11]: slight preference for NAD+
- ADH and PDH activity (in words) [12]: showed ADH activity; also recorded: PDH activity was not detectable

B3: MtncADH D220C: site-directed mutant of M. truncatula noncanonical ADH, Asp220 to Cys (protein)
chain: MSNSPSLKIGIVGFGSFGQFLAKTMIKQGHTLTATSRTDYSHTCLQLGIQFFRDVGTFIEANNDVILICTSIMSFTKVLSSMPLACLKKPTTLFVDVLSVKEHPREVLLRVLPEESDILCTHPMFGPESGKNGWKDLNFMYDKVRIHDEATCSNFLHIFASEGCKMLQMSCEEHDKIAAKSQFITHTIGRTLAEMDIESTPIDTKGFQTLTQLKNTTMRCSFDLYSGLFVHNRFAKQELENLQRALDRVKEMLVQRMREELGPEKD
modifications: Synthetic: MtncADH D220C
notes: site-directed mutant of M. truncatula noncanonical ADH, Asp220 to Cys
- substrate specificity: PDH versus ADH activity (in words) [9]: reduced ADH activity and enhanced PDH activity
- feedback inhibition by Tyr (in words) [10]: significantly less sensitive to Tyr inhibition than the respective wild-type enzymes
